Active and inactive are the calls of the source.

Assay [1] deals with Streptococcus sp. 'group A'. Briefly: growth inhibition of control SK(-) GAS strain, dose response, counter-screen for streptokinase expression inhibitor project, luminescence, kanamycin, BacTiterGlo, confirmation (AID 1900). It is filed as functional, organism-based. On the technique in general: Counterscreens check selectivity or assay interference.
The subject of a further assay is Streptococcus. In words: Group A Streptococcus viability loss, dose response, counter-screen for streptokinase expression inhibitor project, luminescence, BacTiterGlo (AID 1915).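 Note: potency for reduction of bacterial viability or growth.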 It is filed as functional, organism-based.
Assay [2] in a line: Luminescence Cell-Based Dose Retest to Confirm Inhibitors of Cancer Stem Cells. [Related pubchem assays (depositor defined):AID2717, AID2721]. The settings on record: Homo sapiens. It is filed as functional.
In a further assay the target is Cytochrome P450 3A4 (Homo sapiens, UniProt P08684).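 Note: CYP3A4 tested as one member of a cytochrome P450 panel screen.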
For the next assay, the target named is T1, Cytochrome P450 1A2 (Homo sapiens, UniProt P05177).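 Note: PubChem cytochrome P450 panel assay, CYP1A2 panel member.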
T1 sequence (P05177 whole entry): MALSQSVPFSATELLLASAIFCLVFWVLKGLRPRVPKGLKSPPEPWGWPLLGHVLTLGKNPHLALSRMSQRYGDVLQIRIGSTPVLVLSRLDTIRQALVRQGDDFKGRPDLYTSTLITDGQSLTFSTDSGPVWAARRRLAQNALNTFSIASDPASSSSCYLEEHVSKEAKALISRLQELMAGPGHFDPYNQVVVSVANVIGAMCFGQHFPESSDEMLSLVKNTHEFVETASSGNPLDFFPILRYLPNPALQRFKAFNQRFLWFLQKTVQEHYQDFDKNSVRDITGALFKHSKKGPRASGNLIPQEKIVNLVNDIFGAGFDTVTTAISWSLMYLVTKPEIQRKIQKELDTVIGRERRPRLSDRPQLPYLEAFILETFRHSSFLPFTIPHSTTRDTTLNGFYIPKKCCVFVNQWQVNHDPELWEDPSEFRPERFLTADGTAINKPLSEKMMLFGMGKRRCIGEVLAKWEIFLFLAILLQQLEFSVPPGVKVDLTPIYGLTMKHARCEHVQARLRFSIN

For assay [3], the target named is T2, Rac GTPase-activating protein 1 (Homo sapiens, UniProt Q9H0H5).
T2 sequence (Q9H0H5 whole entry): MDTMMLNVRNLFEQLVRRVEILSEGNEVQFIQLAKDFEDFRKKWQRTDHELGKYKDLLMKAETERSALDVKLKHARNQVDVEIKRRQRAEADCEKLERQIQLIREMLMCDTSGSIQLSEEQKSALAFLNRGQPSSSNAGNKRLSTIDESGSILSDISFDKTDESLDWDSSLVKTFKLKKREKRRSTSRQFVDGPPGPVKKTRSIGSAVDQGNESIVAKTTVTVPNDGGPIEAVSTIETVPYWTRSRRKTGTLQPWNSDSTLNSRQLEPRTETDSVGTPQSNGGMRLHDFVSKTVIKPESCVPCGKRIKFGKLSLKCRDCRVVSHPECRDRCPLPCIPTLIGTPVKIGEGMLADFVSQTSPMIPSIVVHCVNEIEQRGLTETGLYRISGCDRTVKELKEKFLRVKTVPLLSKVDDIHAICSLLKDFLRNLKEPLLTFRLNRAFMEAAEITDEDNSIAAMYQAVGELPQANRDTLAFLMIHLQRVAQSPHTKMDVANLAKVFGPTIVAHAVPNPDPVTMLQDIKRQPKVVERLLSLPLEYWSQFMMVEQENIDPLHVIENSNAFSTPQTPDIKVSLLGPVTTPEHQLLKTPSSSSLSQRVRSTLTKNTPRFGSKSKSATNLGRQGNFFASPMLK
Briefly: MgcRacGAP GTPase-activating activity inhibitors, confirmation, biochemical, ADP Hunter fluorescence, primary and confirmatory (AID 624330). The assay is classed as functional.

The nature of assay [4]: inhibitors of intracellular T. cruzi replication, confirmation, NIH3T3 host cells, beta-gal luminescence (AID 2044).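 Note: intracellular parasites grown in NIH/3T3 mouse fibroblasts as host cells; luminescent beta-galactosidase reporter signal from transgenic T. cruzi replicating inside host cells; inhibitors lower the luminescence signal.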 The assay is classed as functional, cell-based.
A short description of assay [5]: cytotoxicity toward NIH3T3 fibroblasts, dose response, counter-screen, cell-based, ATP luminescence, mouse fibroblasts (AID 2010).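 Note: cells exposed to compound for about 90 hours before reading.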 It is filed as functional.

Cytochrome P450 3A4, sequence (P08684 whole entry): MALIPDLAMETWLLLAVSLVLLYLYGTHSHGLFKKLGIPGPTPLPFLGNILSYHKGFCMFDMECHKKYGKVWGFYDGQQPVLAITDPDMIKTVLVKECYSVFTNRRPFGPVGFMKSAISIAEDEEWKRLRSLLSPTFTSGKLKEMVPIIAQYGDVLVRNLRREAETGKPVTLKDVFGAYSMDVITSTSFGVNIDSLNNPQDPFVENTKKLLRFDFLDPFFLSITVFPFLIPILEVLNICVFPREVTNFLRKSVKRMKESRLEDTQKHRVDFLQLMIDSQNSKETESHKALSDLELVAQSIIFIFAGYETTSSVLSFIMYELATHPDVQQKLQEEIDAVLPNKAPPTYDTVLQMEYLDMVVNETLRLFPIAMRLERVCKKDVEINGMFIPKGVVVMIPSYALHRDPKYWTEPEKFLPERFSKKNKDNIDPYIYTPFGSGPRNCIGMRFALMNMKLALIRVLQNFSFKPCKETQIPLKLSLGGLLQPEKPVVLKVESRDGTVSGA

Take `Cc1nn(CC(=O)NC2C(=O)N3C(C(=O)O)=C(CSc4nnnn4C)CSC23)cc1Br` (stereo not given): the results for the EC50 (in assay [1]; with Streptococcus) were 0.072 µM (active) and 0.316 µM (active), respectively.

With `CCc1ccc(-c2cc3c(=O)n(CC(=O)NCCN4CCCCC4C)nc(C)n3n2)cc1` (stereo not given), the AC50 (usually the concentration giving half of the maximal activity seen) in assay [2] is 2.45 µM (active).

Turning to `CCS(=O)(=O)N1CCC(C(=O)NCCCOC)CC1`, on Cytochrome P450 3A4, the concentration at half-maximal activity (AC50) is 0.0562 µM (inconclusive).

As to `Nc1nc2c(C(=O)NCc3cccs3)nnn2c2cccc(Cl)c12`, the AC50 at Cytochrome P450 1A2 is 1 µM (inconclusive).

`COc1cccc(-c2sc3ccc(OC)cc3c2C#CCC(C)O)c1` (stereo not given): the AC50 in assay [2] is 3.66 µM (active).

`CCOc1cc(-c2cc(-c3ccc(NC(C)=O)cc3)nc(N)c2C#N)ccc1O`: the EC50 (commonly the concentration giving half of the maximal effect) in assay [1] was 0.651 µM (active); with Streptococcus, 6.34 µM (active).

Regarding `Cn1cc(-c2nc3cnc(N4CCNCC4)nc3n(C)c2=O)c2ccccc21`, the AC50 on Cytochrome P450 1A2 is 15.8 µM (inconclusive).

For the molecule `COc1ccc(CN(C)CC(=O)Nc2ccc(Cl)cc2C(F)(F)F)c(OC)c1`, the IC50 – broadly, the concentration that gives 50% inhibition – in assay [3] is 84.4 µM (active).

Take `COc1ccc2[nH]c3c(c2c1)CCN=C3C`: the AC50 at Cytochrome P450 3A4 is 5.01 µM (inconclusive).

On to `CCn1c(NC(=O)c2cccc(Cn3cc(Cl)cn3)c2)nc2ccccc21`, for which the EC50 in assay [1] was 3.97 µM (active); in the assay on Streptococcus it was 18.6 µM (active).

Consider `CN(CCc1ccccn1)Cc1ccc(Cl)c(Cl)c1`, for which the EC50 in assay [4] is 0.244 µM (active); in assay [5] it was > 60 µM (not active).

As for `COc1ccc(-c2nc3cnc(OC)nc3n(CCC#N)c2=O)cc1`, the AC50 at Cytochrome P450 1A2 is 6.31 µM (inconclusive).

For `COc1cc2nc(=S)n(CCCN3CCOCC3)c(N)c2cc1OC`, in assay [3], the IC50 is 202 µM (active).

On to `COc1cccc(Oc2nc(-c3ccncc3)nc3ccccc23)c1`, for which the EC50 is 2.41 µM (active) in assay [4] and 7.86 µM (active) in assay [5].

As to `O=c1ccn(-c2ccccc2)[nH]1`, in assay [3], the IC50 is 46.9 µM (active).

Take `CCc1ccccc1NC(=O)CN(c1ccc(OC)cc1OC)S(=O)(=O)c1ccccc1[N+](=O)[O-]`: the results for the EC50 in assay [4] and in assay [5] were 2.25 µM (active) and > 60 µM (not active), respectively.

On to `CCO/C(O)=C(/C#N)c1nc2ccccc2nc1N(CC(C)C)CC(C)C`, for which the half-maximal activity concentration (AC50) in assay [2] was 6.07 µM (active).

On to `O=C(Nc1ccccc1)N1CCCC2(CCNCC2)C1`, for which the AC50 is 25.1 µM (inconclusive) on Cytochrome P450 1A2 and 20 µM (inconclusive) on Cytochrome P450 3A4.

Regarding `CCC(C)c1ccccc1NC(=O)COC(=O)c1ccc2[nH]c3c(c2c1)CCCC3` (stereo not given), in assay [2], the AC50 was 2.09 µM (active).

Consider `Cc1nc2ccc(Br)cn2c1C(=O)N/N=C\c1ccc(C(C)C)cc1`, for which, in assay [2], the AC50 was 2.75 µM (active).

In the case of `O=[N+]([O-])c1ccc(Nc2nc(NC3CCCCC3)nc(N3CCCC3)n2)cc1`, the EC50 in assay [4] was 1.75 µM (active); in assay [5], > 60 µM (not active).

Consider `CN(C)C=O.O=[N+]([O-])c1cccc(COc2ncnc3cc([N+](=O)[O-])ccc23)c1`, for which the results for the EC50 in assay [4] and in assay [5] were 1.93 µM (active) and > 60 µM (not active), respectively.

With `CCCCNC(=O)CCc1c(C)nc2c(c(C)nn2-c2ccccc2)c1C`, the EC50 in assay [4] is 1.39 µM (active); in assay [5], > 30 µM (not active).

With `COc1cc(/C=N/N=C2\CC3CCC2(C)C3(C)C)ccc1O` (stereo not given), the 50% inhibitory concentration (IC50) in assay [3] was 54.4 µM (active).

With `COc1ccc(-c2c[n+](CC(=O)N3c4ccccc4Sc4ccccc43)c3n2CCC3)cc1`, the values for the EC50 in assay [4] and in assay [5] were 0.648 µM (active) and > 60 µM (not active), respectively.

As for `CCCN1C[C@H](CSC)C[C@H]2c3cccc4[nH]cc(c34)C[C@@H]21`, the AC50 on Cytochrome P450 1A2 was 3.16 µM (inconclusive).

As for `COC(=O)c1ccc(N2CCN(c3ccccc3)CC2)c(NC(=O)C2CC2)c1`, the values for the AC50 at Cytochrome P450 1A2 and at Cytochrome P450 3A4 were 39.8 µM (inconclusive) and 25.1 µM (inconclusive), respectively.

Consider `C#CCCCO/N=C1/C[C@@H](O)[C@@H](O)[C@@H]2[C@@H]3C(=O)N(CCC(=O)OCC)C(=O)[C@H]3CC[C@@H]12`, for which the AC50 on Cytochrome P450 3A4 is 3.16 µM (inconclusive).

`COc1ccc(NC(=O)N2CCCC3(CCN(C(=O)c4cnccn4)CC3)C2)cc1`: the AC50 at Cytochrome P450 3A4 was 15.8 µM (inconclusive).

Consider `CC1=C(/C=C\C(=O)O)C(C)(C)CCC1`, for which, on Cytochrome P450 1A2, the AC50 is 6.31 µM (inconclusive).

On to `N#CC1=C(N)NC(SCc2ccc(Br)cc2)=C(C#N)C12CCCCC2`, for which the EC50 in assay [4] is 3.29 µM (active); in assay [5], > 60 µM (not active).

Turning to `COc1ccc(-n2nc([N+](=O)[O-])c(NCCc3cccc(C)c3)[n+]2[O-])cc1`, the concentration giving a half-maximal response (EC50) in assay [4] was 0.48 µM (active); in assay [5], > 60 µM (inconclusive).

On to `COc1ccc(C(c2nnnn2Cc2ccccc2)N2CCN(c3nc4ccccc4s3)CC2)cc1` (stereo not given), for which the figures for the EC50 in assay [4] and in assay [5] were 3 µM (active) and 8.63 µM (active), respectively.

`Oc1ccc2ccc(Cl)cc2c1`: in assay [3], the IC50 was 41.9 µM (active).

Take `Cc1c(C)n(CCCN(C)C)c2ncnc(Nc3ccc(F)cc3)c12`: the EC50 in assay [4] is 0.9 µM (active); in assay [5] it was > 30 µM (not active).

For `COc1ccc(/C=N/N(Cc2ccccc2)c2ccccc2)cc1O`, in assay [2], the AC50 is 6.09 µM (active).

In the case of `O=C(O)[C@@H]1CCN(Cc2oc(CO)cc(=O)c2O)C1`, at Cytochrome P450 1A2, the AC50 is 10 µM (inconclusive).

Turning to `Cc1ccc(C)c(-n2c(Cc3cc(O)nc(O)n3)nnc2SCC(=O)NCC2CCCO2)c1` (stereo not given), the AC50 on Cytochrome P450 3A4 is 31.6 µM (inconclusive).

For `Oc1ccc(Nc2ncnc3c2oc2ccccc23)cc1`, the IC50 in assay [3] was 15 µM (active).

Turning to `COC(=O)c1ccc(-c2noc(CN(Cc3ccncc3)CC3CCCO3)n2)cc1` (stereo not given), the EC50 in assay [4] was 2.46 µM (active); in assay [5], > 60 µM (inconclusive).

Take `Cc1ccc(Cl)cc1N1CCN(C(=O)c2ccc(CN3CCOCC3)cc2)CC1`: the EC50 is 2.13 µM (active) in assay [4] and 4.63 µM (active) in assay [5].

With `CN1CCN(c2ncc3nc(CCc4ccccc4)c(=O)n(C4CC4)c3n2)CC1`, the AC50 at Cytochrome P450 1A2 was 12.6 µM (inconclusive); at Cytochrome P450 3A4 it was 15.8 µM (inconclusive).

As to `Cc1cccc(NC(=S)N(CCc2nc3cc(C)c(C)cc3[nH]2)Cc2cccnc2)c1`, the EC50 in assay [4] was 0.853 µM (active); in assay [5], > 60 µM (not active).

Turning to `COCCNC(=O)c1onc(CSc2ccc(Cl)cc2)c1C(=O)O`, on Cytochrome P450 3A4, the AC50 is 15.8 µM (inconclusive).

With `Cc1c(C(=O)Nc2ccc3c(c2)OCCO3)sc2nc(-c3ccccc3)cn12`, the EC50 is 3.01 µM (active) in assay [1] and 7.44 µM (active) in the assay with Streptococcus.

As for `CC1=C(C(=O)Nc2cccnc2)C(c2cccnc2)n2nc(-c3cccs3)nc2N1` (stereo not given), on Cytochrome P450 1A2, the AC50 was 5.01 µM (inconclusive).

With `COc1cc(/C=N/Nc2nc(C)cc(C)n2)ccc1O`, in assay [3], the IC50 is 47.1 µM (active).

Regarding `CN1CCN(c2ccnc(-c3ccc(N(C)C)cc3)n2)CC1`, the AC50 on Cytochrome P450 3A4 was 15.8 µM (inconclusive).

`COc1cc(C(=O)N/N=C/c2cn(Cc3ccccc3)c3ccccc23)ccc1O`: the 50% inhibitory concentration (IC50) in assay [3] was 90.1 µM (active).

As for `Cn1c(=O)c2c(nc(Cl)n2Cc2ccc(Cl)c(Cl)c2)n(C)c1=O`, the AC50 at Cytochrome P450 3A4 was 15.8 µM (inconclusive).

Take `Clc1ccc(COc2cccc(CNCc3ccncc3)c2)cc1`: the EC50 in assay [4] was 3.42 µM (active); in assay [5], > 60 µM (not active).

Take `CC(C)NCC(O)COC1C2CC3CC(C2)CC1C3` (stereo not given): the 50% effective concentration (EC50) in assay [4] is 1.14 µM (active); in assay [5], > 60 µM (not active).

The values above are taken from ChEMBL document CHEMBL1201862, “PubChem BioAssay data set” (2004).
